Source: patent publication EP4512427A1, “ANTIBODY-DRUG CONJUGATES BASED ON MOLECULAR GLUE DEGRADERS AND USES THEREOF” (Mablink Bioscience, priority 2023, dated 2025)

Columns and labels:
CDK13/CycK = target: T1, CDK13/CycK (Homo sapiens, UniProt Q14004); assay: IC50 profiling on top 25 protein kinases; type: biochemical; conditions: titration from 0.1 nM to 10 000 nM
T1 construct: GST-fusion or His-tag (not given for this kinase); purchased Reaction Biology, Germany; host or cells: Sf9 insect cells or E.coli
T1 sequence (Q14004 whole entry, the tested form may be a part): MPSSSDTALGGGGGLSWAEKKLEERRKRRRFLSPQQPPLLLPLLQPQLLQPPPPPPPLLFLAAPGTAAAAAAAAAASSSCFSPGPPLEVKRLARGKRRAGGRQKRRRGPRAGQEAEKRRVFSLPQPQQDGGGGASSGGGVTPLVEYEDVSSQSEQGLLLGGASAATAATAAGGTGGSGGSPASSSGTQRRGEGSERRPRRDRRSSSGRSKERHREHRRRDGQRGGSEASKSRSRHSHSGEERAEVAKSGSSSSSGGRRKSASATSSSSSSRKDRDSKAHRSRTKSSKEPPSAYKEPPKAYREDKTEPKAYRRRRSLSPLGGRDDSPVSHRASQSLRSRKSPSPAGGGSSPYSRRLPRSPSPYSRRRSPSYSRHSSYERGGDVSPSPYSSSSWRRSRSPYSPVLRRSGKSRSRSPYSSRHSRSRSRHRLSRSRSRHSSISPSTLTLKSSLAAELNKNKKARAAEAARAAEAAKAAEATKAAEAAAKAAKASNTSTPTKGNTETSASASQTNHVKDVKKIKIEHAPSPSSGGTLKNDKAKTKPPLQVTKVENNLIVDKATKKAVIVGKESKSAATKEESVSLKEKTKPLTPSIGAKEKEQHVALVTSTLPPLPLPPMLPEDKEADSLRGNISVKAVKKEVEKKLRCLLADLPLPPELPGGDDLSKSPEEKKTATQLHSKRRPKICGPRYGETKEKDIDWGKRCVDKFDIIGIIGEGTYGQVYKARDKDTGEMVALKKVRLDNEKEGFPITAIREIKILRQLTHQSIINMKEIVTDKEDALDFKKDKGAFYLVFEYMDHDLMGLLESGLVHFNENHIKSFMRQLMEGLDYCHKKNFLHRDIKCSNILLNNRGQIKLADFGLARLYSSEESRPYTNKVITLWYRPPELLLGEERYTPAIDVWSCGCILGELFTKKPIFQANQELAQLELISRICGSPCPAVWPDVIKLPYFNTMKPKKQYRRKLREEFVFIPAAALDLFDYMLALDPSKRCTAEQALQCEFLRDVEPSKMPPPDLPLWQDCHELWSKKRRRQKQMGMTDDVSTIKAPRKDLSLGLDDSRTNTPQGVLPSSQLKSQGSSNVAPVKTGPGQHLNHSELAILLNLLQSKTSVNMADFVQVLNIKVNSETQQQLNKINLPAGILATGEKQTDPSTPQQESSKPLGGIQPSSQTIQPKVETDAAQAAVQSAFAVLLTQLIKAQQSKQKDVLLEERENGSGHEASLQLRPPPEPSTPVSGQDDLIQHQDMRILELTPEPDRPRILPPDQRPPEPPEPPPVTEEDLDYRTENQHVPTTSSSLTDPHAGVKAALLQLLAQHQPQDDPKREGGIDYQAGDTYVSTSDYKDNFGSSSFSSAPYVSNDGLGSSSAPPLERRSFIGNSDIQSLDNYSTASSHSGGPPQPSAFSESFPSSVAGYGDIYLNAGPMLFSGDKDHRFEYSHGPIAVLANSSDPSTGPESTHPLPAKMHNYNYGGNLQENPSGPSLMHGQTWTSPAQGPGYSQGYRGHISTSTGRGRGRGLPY
T1 sequence (O75909 whole entry partner, the tested form may be a part): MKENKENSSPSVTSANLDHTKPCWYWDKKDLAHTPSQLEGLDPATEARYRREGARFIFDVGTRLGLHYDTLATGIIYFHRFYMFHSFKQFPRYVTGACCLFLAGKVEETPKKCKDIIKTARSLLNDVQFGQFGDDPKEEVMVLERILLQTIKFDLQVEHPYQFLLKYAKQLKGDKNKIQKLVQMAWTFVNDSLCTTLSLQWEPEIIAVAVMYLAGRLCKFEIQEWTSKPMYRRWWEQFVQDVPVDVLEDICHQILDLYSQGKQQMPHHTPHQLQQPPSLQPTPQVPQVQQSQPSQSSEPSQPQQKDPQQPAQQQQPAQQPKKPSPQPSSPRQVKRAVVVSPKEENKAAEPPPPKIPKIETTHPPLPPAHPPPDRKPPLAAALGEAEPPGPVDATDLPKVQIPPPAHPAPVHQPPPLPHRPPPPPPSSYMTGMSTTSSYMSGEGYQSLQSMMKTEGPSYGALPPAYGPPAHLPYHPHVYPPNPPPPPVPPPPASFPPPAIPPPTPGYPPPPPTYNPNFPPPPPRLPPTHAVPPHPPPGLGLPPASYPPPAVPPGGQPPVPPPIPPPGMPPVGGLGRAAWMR
Method: (§1) Compound 2384 according to the disclosure was subjected to kinase screening assays (performed at Reaction Biology, Germany). […] A radiometric protein kinase assay (33PanQinase® ActivityAssay) was used for measuring the kinase activity of 340 protein kinases. All kinase assays were performed in 96-well FlashPlates™ from Perkin Elmer (Boston, MA, USA) in a 50 µL reaction volume. […] All PKC assays (except the PKC-mu and the PKC-nu assay) additionally contained 1 mM CaCl2, 4 mM EDTA, 5 µg/m! Phosphatidylserine and 1 µg/m! 1,2-Dioleyl-glycerol. The CAMK1D, CAMK2A, CAMK2B, CAMK2D, CAMK2G, CAMK4, CAMKK1, CAMKK2, DAPK2, EEF2K, MYLK, MYLK2 and MYLK3 assays additionally contained 1 µg/ml Calmodulin and 0.5 mM CaCl2. The PRKG1 and PRKG2 assays additionally contained 1 µM cGMP. The DNA-PK assay additionally contained 2.5 µg/ml DNA. The protein kinase reaction cocktails were incubated at 30°C for 60 minutes. The reaction was stopped with 50 µl of 2 % (v/v) H3PO4, plates were aspirated and washed two times with 200 µL 0.9 % (w/v) NaCl. Incorporation of 33Pi (counting of "cpm") was determined with a microplate scintillation counter (Microbeta, Wallac). All protein kinase assays were performed with a BeckmanCoulter Biomek 2000/SL robotic system. All protein kinases provided by RBE were expressed in Sf9 insect cells or in E.coli as recombinant GST-fusion proteins or His-tagged proteins, either as full-length or enzymatically active fragments. All kinases were produced from human cDNAs and purified by either GSH-affinity chromatography or immobilized metal. Affinity tags were removed from a number of kinases during purification. The purity of the protein kinases was examined by SDS-PAGE/Coomassie staining, the identity was checked by mass spectroscopy. Kinases from external vendors were expressed, purified and quality-controlled. Staurosporine was used as positive control.
(§2) Staurosporine was used as positive control.

CDK9/CycT1 = target: T2, CDK9/CycT1 (Homo sapiens, UniProt P50750); assay: IC50 profiling on top 25 protein kinases; type: biochemical; conditions: titration from 0.1 nM to 10 000 nM
T2 construct: GST-fusion or His-tag (not given for this kinase); purchased Reaction Biology, Germany; host or cells: Sf9 insect cells or E.coli
T2 sequence (P50750 whole entry, the tested form may be a part): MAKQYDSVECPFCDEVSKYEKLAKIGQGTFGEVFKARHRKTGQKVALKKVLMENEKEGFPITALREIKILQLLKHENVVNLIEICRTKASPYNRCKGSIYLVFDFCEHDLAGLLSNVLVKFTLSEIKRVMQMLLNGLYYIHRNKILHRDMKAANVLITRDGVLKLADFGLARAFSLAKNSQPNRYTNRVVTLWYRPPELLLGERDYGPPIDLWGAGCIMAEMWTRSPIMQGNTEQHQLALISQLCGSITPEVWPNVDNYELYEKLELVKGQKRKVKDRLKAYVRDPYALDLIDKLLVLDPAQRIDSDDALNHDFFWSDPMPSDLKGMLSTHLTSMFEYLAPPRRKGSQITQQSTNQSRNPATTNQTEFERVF
T2 sequence (O60563 whole entry partner, the tested form may be a part): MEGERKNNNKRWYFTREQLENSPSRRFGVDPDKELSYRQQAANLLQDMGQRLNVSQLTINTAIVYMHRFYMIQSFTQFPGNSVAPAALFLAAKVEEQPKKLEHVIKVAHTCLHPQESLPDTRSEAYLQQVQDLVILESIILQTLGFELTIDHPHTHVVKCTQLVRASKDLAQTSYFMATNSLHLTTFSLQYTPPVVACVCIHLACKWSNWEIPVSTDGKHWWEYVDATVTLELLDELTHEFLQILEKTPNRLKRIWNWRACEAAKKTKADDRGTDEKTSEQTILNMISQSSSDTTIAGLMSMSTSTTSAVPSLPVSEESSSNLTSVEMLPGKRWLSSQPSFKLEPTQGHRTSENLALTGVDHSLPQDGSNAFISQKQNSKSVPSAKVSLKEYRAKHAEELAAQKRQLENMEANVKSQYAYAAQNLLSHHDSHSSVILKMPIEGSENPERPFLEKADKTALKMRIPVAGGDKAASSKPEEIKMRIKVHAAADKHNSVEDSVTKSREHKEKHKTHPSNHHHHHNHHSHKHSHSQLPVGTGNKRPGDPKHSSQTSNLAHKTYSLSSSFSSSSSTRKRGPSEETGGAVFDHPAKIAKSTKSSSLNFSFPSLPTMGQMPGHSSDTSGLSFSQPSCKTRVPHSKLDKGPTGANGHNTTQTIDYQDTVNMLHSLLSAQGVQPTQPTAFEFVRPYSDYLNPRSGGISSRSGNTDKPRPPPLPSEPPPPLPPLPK
Method: as §1, §2

CDK12/CycK = target: T3, CDK12/CycK (Homo sapiens, UniProt Q9NYV4); assay: IC50 profiling on top 25 protein kinases; type: biochemical; conditions: titration from 0.1 nM to 10 000 nM
T3 construct: GST-fusion or His-tag (not given for this kinase); purchased Reaction Biology, Germany; host or cells: Sf9 insect cells or E.coli
T3 sequence (Q9NYV4 whole entry, the tested form may be a part): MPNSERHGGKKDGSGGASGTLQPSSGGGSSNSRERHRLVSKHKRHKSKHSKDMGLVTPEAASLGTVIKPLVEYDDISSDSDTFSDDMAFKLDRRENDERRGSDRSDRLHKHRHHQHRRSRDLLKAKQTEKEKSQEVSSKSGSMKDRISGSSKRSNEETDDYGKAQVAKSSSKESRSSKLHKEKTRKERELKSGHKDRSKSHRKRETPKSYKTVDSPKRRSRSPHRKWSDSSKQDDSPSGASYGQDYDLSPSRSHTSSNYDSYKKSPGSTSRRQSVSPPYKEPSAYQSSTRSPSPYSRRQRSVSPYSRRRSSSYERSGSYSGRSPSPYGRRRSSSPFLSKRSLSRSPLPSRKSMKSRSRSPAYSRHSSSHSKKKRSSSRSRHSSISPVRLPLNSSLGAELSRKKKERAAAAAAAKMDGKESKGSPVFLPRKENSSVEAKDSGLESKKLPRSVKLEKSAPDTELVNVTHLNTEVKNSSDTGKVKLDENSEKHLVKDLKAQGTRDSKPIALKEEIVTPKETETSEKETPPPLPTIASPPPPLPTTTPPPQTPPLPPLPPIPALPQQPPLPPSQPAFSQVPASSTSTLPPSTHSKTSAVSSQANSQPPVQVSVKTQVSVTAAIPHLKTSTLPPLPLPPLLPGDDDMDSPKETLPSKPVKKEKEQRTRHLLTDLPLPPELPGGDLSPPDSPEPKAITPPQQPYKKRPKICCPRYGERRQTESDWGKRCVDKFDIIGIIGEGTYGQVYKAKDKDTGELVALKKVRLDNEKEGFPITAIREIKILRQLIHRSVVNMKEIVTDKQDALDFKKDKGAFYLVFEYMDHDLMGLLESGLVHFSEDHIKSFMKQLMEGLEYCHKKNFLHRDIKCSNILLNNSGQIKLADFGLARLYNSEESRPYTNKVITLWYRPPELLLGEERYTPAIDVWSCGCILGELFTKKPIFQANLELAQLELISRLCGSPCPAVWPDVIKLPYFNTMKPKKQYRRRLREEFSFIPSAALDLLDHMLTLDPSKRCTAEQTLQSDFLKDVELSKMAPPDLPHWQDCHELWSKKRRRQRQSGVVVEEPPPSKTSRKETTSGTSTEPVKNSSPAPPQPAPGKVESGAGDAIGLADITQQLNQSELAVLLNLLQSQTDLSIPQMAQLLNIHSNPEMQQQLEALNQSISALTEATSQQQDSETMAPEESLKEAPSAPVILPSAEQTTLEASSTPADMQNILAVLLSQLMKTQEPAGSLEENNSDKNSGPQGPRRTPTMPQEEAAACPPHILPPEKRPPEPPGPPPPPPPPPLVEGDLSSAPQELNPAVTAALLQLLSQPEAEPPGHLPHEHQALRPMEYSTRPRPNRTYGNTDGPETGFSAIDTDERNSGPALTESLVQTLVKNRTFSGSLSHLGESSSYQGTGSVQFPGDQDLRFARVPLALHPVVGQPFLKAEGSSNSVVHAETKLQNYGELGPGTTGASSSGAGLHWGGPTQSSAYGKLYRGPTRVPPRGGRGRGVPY
T3 sequence (O75909 whole entry partner, the tested form may be a part): as the sequence (O75909 whole entry partner, the tested form may be a part) above
Method: as §1, §2

CDK9/CycK = target: T4, CDK9/CycK (Homo sapiens, UniProt P50750); assay: IC50 profiling on top 25 protein kinases; type: biochemical; conditions: titration from 0.1 nM to 10 000 nM
T4 construct: GST-fusion or His-tag (not given for this kinase); purchased Reaction Biology, Germany; host or cells: Sf9 insect cells or E.coli
T4 sequence (P50750 whole entry, the tested form may be a part): as the sequence (P50750 whole entry, the tested form may be a part) above
T4 sequence (O75909 whole entry partner, the tested form may be a part): as the sequence (O75909 whole entry partner, the tested form may be a part) above
Method: as §1, §2

JIMT-1 cells = assay: Cell cycle arrest assessment (propidium iodide); type: cell-based, human; conditions: 24h at 2, 5, 10, and 50nM
Method: 1×10^6 JIMT-1 cells were plated in 3mL of DMEM/FBS 90:10 (v/v) in 6-well plates and incubated overnight. Cells were treated with the compound 2384 of the invention or with CR8 for 24h. Cells were then harvested and washed three times with PBS. Cells were suspended into 300µL of propidium iodide working solution (0.05mg/mL) and incubated for 45 minutes at 4°C in the dark. Analysis was performed using a BD Fortessa flow cytometer controlled by BD FACSDiva software (BD Biosciences) and data were analyzed using FlowJo software (BD Bioscience).

CycK = CycK protein quantification by Western Blot; type: cell-based, human
Method: 1×10^6 JIMT-1 cells were plated in 3mL of DMEM/FBS 90:10 (v/v) in 6-well plates and incubated overnight. Cells were treated with the compound 2384 of the invention with or without the proteasome inhibitor MG-132 (MedChemExpress, Cat HY-13259) for 2h. Cells were harvested, and protein were extracted using complete RIPA buffer (RIPA buffer, 1 mM DTT, 1M NaF, 100 mM sodium orthovanadate, phosphatase inhibitor buffer and protease inhibitors) for 1 hour on ice. Lysate were centrifuged 15min at 12 000g at 4°C. and proteins were mixed with 4x Laemmli Sample Buffer (Bio-Rad), heated at 95 °C for 5 mins and separated by SDS PAGE (PROTEAN TGX Stain-Free Gels, Bio-Rad). Proteins were then transferred onto PVDF membrane (iBlot®2 PVDF stacks, Invitrogen) using the iBlot2 device (Invitrogen) and blocked with TBS buffer (Intercept® Blocking Buffer, LI-COR Biosciences). Primary antibodies were incubated overnight at 4°C and secondary antibodies (IRDye Infrared Dyes from LI-COR Biosciences) 1 hour at room temperature. Used primary antibody were: anti-CycK (cat#A301-939A, Bethyl Laboratories, dil. 1:1000) and anti-β-actin (cat#A5441, Sigma-Aldrich, dil. 1:5000). Membranes were scanned using a c500 Imaging System (Azure Biosystems) and densitometric quantification were performed using imaged software. Protein levels were normalized against β-actin.

N[C@H]1CC[C@H](Nc2nc(NCc3ccc(-c4ccccn4)cc3)n3ncc(Br)c3n2)CC1 [Compound 2384]
IC50 (CDK13/CycK): < 25 nM | IC50 (CDK9/CycT1): < 25 nM | IC50 (CDK12/CycK): < 25 nM | IC50 (CDK9/CycK): < 25 nM | cell cycle analysis (JIMT-1 cells): arrest in the G2/M phase | CycK degradation (CycK; 10nM, 2h treatment of JIMT-1 cells): complete CycK degradation | CycK protein content (CycK; JIMT-1 cells, 1µM, 2h): decreased CycK protein content | minimum effective dose for CycK degradation compared with CR8 (CycK; JIMT-1 cells, 2h): approximately 10 times lower | CycK protein content (CycK; JIMT-1 cells, combination with the proteasome inhibitor MG-132, 2h): restored the content in cycK protein
